Measured values reported in patent US20090175848A1, “Modulation of the Cooperativity Between the Ion Channels TRPM5 and TRPA1” (priority 2007, published 2009).

Assays:
[1] = system: TRPM5-expressing HEK-293 cells (TRPM5-293); experiment: FLIPR membrane potential assay in TRPM5-293 cells; format: cell-based, human; details: for effect on AITC membrane potential response: pre-treatment, then AITC, TRPM5-293 cells
Description: To create a stably transfected cell line expressing hTRPM5, 1.0×10^6 HEK 293 cells (ATCC, Manassas, Va.) were seeded in 35 mm tissue culture dishes (Falcon, BD Biosciences, Bedford, Mass.) and grown overnight in a 37° C. and 5% CO2 incubator, in culture medium consisting of DMEM, 10% fetal bovine serum (FBS), and penicillin with streptomycin. The next day, the cells were transfected using 4 μg of pcDNA 3.2-hTRPM5 with 7 μl of Lipofectamine 2000 (Invitrogen), following the manufacturer's protocol. After two days in culture, the cells were replated at 1:10 and 1:100 dilution, and from those plates seeded at very low density in 96-well plates to isolate single-cell colonies. To select individual clones, 1 mg/ml Geneticin (Invitrogen) was added to the culture medium. Once stably expressing clones were identified, the concentration of Geneticin was reduced to 0.25 mg/ml for expansion and maintenance. Clones were selected on the basis of their response to ATP (Sigma) and lonomycin (Sigma) in the FLIPR® assay using the Membrane Potential Assay Kit RED (Molecular Devices). Stable cell lines in chinese hamster ovary cells (CHO-M1) were created similarly except that 5.0×10^5 cells were plated in 35 mm dishes overnight and the selection medium consisted of F-12K/Ham's, 10% fetal bovine serum (FBS), 100 μg/ml of Geneticin, and 10 μg/ml Blasticidin S HCl, and penicillin with streptomycin. Stably expressing clones were maintained in the same medium except that the Balsticidin S HCl concentration was reduced to 5 μg/ml.
(§1) For hTRPM5-293 or HEK293 assays, cells were seeded overnight in poly-D-lysine coated 384-well plates at 15,000 cells per well in 20 μl of media. For assays of hTrpM5-CHO-M1 assays cells were seeded overnight in tissue culture treated 384-well plates at 10,000 cells per well in 20 μl of media. The assay was performed using a fluorometric imaging plate reader (FLIPR-Tetra™, Molecular Devices, Sunnyvale, Calif.), using the excitation 510-545 nm and emission 565-625 nm filter sets. The cells were loaded with 20 μl/well of Membrane Potential Assay Kit RED dye (Molecular Devices), in a 37° C. and 5% CO2 incubator for 1 hour. To measure intracellular calcium changes, the Calcium 3 dye (Molecular Devices) supplemented with 125 μM was used. The plates were equilibrated to room temperature for 15 minutes before the start of the assay. The compounds allyl isothiocyanate (AITC), cinnamaldehyde, EGTA, ionomycin, U73122, U73144 were purchased from Sigma-Aldrich (St. Louis, Mo.) and stocks prepared in DMSO. Samples were diluted in HBSS with 20 mM HEPES prior to the assay and 10 μl per well was added to the assay plate. The plates were read on the FLIPR® for a total of 3 minutes for a single addition assay and 6 minutes for a 2 addition assay. For single addition assays, baseline fluorescence was obtained on the FLIPR® for 10 seconds followed by addition of each sample by the FLIPR® and read for an additional 2 minutes and 50 seconds. For 2 addition assays, baseline fluorescence was obtained on the FLIPR® for 10 seconds followed by addition of the first sample (e.g. inhibitors, EGTA) by the FLIPR®, read for 2 minutes and 50 seconds, then followed by the addition of AITC and read for another 3 minutes. For ΔRFU measurements, the baseline fluorescence signal (RFUmin) was subtracted from the peak fluorescence signal (RFUmax) at each compound concentration (RFUmax—RFUmin). ΔRFU values for individual concentrations were measured in triplicate, and s.d. reported as error bars.

[2] = system: TRPM5-expressing HEK-293 cells (TRPM5-293); experiment: FLIPR calcium assay in TRPM5-293 cells; format: cell-based, human; details: for effect on AITC calcium response: pre-treatment, then AITC, TRPM5-293 cells
Description: (§2) To create a stably transfected cell line expressing hTRPM5, 1.0×10^6 HEK 293 cells (ATCC, Manassas, Va.) were seeded in 35 mm tissue culture dishes (Falcon, BD Biosciences, Bedford, Mass.) and grown overnight in a 37° C. and 5% CO2 incubator, in culture medium consisting of DMEM, 10% fetal bovine serum (FBS), and penicillin with streptomycin. The next day, the cells were transfected using 4 μg of pcDNA 3.2-hTRPM5 with 7 μl of Lipofectamine 2000 (Invitrogen), following the manufacturer's protocol. After two days in culture, the cells were replated at 1:10 and 1:100 dilution, and from those plates seeded at very low density in 96-well plates to isolate single-cell colonies. To select individual clones, 1 mg/ml Geneticin (Invitrogen) was added to the culture medium. Once stably expressing clones were identified, the concentration of Geneticin was reduced to 0.25 mg/ml for expansion and maintenance. […]
For hTRPM5-293 or HEK293 assays, cells were seeded overnight in poly-D-lysine coated 384-well plates at 15,000 cells per well in 20 μl of media. […] The assay was performed using a fluorometric imaging plate reader (FLIPR-Tetra™, Molecular Devices, Sunnyvale, Calif.), using the excitation 510-545 nm and emission 565-625 nm filter sets. […] The plates were read on the FLIPR® for a total of 3 minutes for a single addition assay and 6 minutes for a 2 addition assay. For single addition assays, baseline fluorescence was obtained on the FLIPR® for 10 seconds followed by addition of each sample by the FLIPR® and read for an additional 2 minutes and 50 seconds. For 2 addition assays, baseline fluorescence was obtained on the FLIPR® for 10 seconds followed by addition of the first sample (e.g. inhibitors, EGTA) by the FLIPR®, read for 2 minutes and 50 seconds, then followed by the addition of AITC and read for another 3 minutes. For ΔRFU measurements, the baseline fluorescence signal (RFUmin) was subtracted from the peak fluorescence signal (RFUmax) at each compound concentration (RFUmax—RFUmin). ΔRFU values for individual concentrations were measured in triplicate, and s.d. reported as error bars.

[3] = system: Chinese hamster ovary (CHO) cells expressing TRPM5; experiment: FLIPR assay in CHO cells expressing TRPM5; format: cell-based; details: TRPM5 expressed in CHO cells
Description: as §2, with “colonies.” for “colonies. To select individual clones, 1 mg/ml Geneticin (Invitrogen) was added to the culture medium. Once stably expressing clones were identified, the concentration of Geneticin was reduced to 0.25 mg/ml for expansion and maintenance.”
For hTRPM5-293 or HEK293 assays, cells were seeded overnight in poly-D-lysine coated 384-well plates at 15,000 cells per well in 20 μl of media. […] The assay was performed using a fluorometric imaging plate reader (FLIPR-Tetra™, Molecular Devices, Sunnyvale, Calif.), using the excitation 510-545 nm and emission 565-625 nm filter sets. […] The plates were read on the FLIPR® for a total of 3 minutes for a single addition assay and 6 minutes for a 2 addition assay. For single addition assays, baseline fluorescence was obtained on the FLIPR® for 10 seconds followed by addition of each sample by the FLIPR® and read for an additional 2 minutes and 50 seconds. […]

[4] = system: TRPM5-expressing HEK cells; experiment: Whole-cell electrophysiology in TRPM5-expressing HEK cells; format: cell-based, human; details: whole-cell voltage clamp, voltage dependence
Description: Whole-cell recordings of TRP channel currents were obtained from acutely trypsinized TRPM5-expressing HEK cells. The bath solution was Hank's Balanced Salt Solution, composed of (mM); 1.2 CaCl2, 0.5 MgCl2-6H2O, 0.4 MgSO4-7H2O, 5.3 KCl, 0.4 KH2PO4, 137.9 NaCl, 0.3 Na2HPO4-7H2O, and 5.5 D-Glucose, with 20 mM HEPES (Invitrogen), pH 7.4 (NaOH). The internal pipette solution contained, in mM: 135 glutamic acid, 8 NaCl, 3 CaCl2, 10 HEPES and 10 EGTA, pH 7.2 (CsOH) (Sigma). Calculated concentration of free calcium in internal solution was 77 nM (MaxChelator, Stanford University). Recording pipettes were pulled using a Flaming/Brown Micropipette Puller (Sutter Instruments), from fire-polished borosilicate glass, to approximately 2 MΩ. Voltage clamp recordings were obtained in whole cell mode using MultiClamp 700B amplifier and Digidata 1322A converter running on Clampex 9.2 software (Axon Instruments). Recordings were performed at room temperature. Series resistance was automatically compensated immediately after the break-in. Data were sampled at 5 kHz and filtered at 1 kHz. AITC was dissolved in bath solution and applied to the cells with a multi-barrel applicator (SF-72, Warner Instruments).

parental HEK-293 cells = experiment: FLIPR calcium assay in untransfected cells; format: cell-based, human; details: untransfected (parental HEK-293) cells
Description: as §1, with “The plates were equilibrated to room temperature for 15 minutes before the start of the assay. The compounds allyl isothiocyanate (AITC), cinnamaldehyde, EGTA, ionomycin, U73122, U73144 were purchased from Sigma-Aldrich (St. Louis, Mo.) and stocks prepared in DMSO. Samples were diluted in HBSS with 20 mM HEPES prior to the assay and 10 μl per well was added to the assay plate.” left out, “For ΔRFU measurements, the baseline fluorescence signal (RFUmin) was subtracted from the peak fluorescence signal (RFUmax) at each compound concentration (RFUmax—RFUmin). ΔRFU values for individual concentrations were measured in triplicate, and s.d. reported as error bars.” left out

[5] = agonist added to TRPM5-293 cells, FLIPR

Row | Structure (SMILES) | effect on ionomycin membrane potential response ([1]; ionomycin as stimulus) | effect on AITC membrane potential response [1] | effect on AITC calcium response [2] | EC50 ([1]; Homo sapiens, HEK293, read-out: EC50 (tested concentration closest to it)) | EC90 ([1]; Homo sapiens, HEK293, read-out: EC90 (tested concentration closest to it)) | membrane potential response [1, 5] | activation of TRPM5 [3] | intracellular calcium levels [2, 5] | desensitization of the AITC-activated current [4] | intracellular calcium response (parental HEK-293 cells)
1 | COc1ccc2c(c1)CC[C@@H]1[C@@H]2CC[C@]2(C)[C@@H](NCCCCCCN3C(=O)C=CC3=O)CC[C@@H]12 [U73122] | enhances | enhanced | enhanced |  |  |  |  |  |  | 
2 | C=CCN=C=S [AITC, allyl isothiocyanate] |  |  |  | ~3 µM | ~33 µM | strong membrane potential response | does not activate | increase in intracellular calcium levels | delayed at positive membrane potentials | no response
3 | O=C(O)CN(CCOCCOCCN(CC(=O)O)CC(=O)O)CC(=O)O [EGTA] |  | altered the membrane potential | inhibited the calcium response |  |  |  |  |  |  | 
